The results in this text go back to patent US20250145570A1, “DHODH INHIBITOR POLYMORPH” (Aslan Pharmaceuticals Pte Ltd, priority 2022, published 2025).

Entries after “also recorded” stand apart in the source; their conditions may differ. Like-named read-outs stand apart in the source and are kept apart here.

The solubility is how much of the substance goes into solution per volume.

Common to all, as to assay type: physicochemical
Data set [1] is described as follows: Form stability of DSP polymorph after processing/recrystallisation (XRPD, DSC, TGA). The protocol:
The farudodstat DSP polymorph was characterized using X-ray powder diffraction (XRPD), differential scanning calorimetry (DSC), thermogravimetric analysis, (TGA) and polarized light microscopy (PLM). Then it was subjected to various recrystallisation and analysis to confirm it was a DSP polymorph.
The suspensions of the DSP polymorph were prepared in different single solvents and mixed solvents (see Table 4 below). After this the samples were kept shaking for 72 hrs at 25° C. and 50° C. before they were centrifuged at 14,000 rpm for 10 mins until solid material was separated from the supernatant. The centrifuged samples were investigated by XRPD. The samples were dried under vacuum conditions at 40° overnight and investigated by XRPD, DSC and TGA if new XRPD patterns were found.
The farudodstat DSP polymorph was subject to processing or treated to test the physical stability of the form.
50 mg of the DSP polymorph was dissolved in the selected solvents (see Table 4) according to the solubility results to form saturated solutions. Next, the anti-solvent was slowly added into the solution under stirring until the precipitation formed. If there was no solid precipitation at room temperature, the sample was transferred into the freezer and stored at −20° C. After this, the slurries were stirred for 24 hours before they were centrifuged at 14,000 rpm for 10 mins, until solid material was separated from the supernatant. The centrifuged samples were investigated by XRPD. The samples were next dried under vacuum conditions at 40° C. overnight. If crystalline XRPD patterns were found, the samples were further investigated by XRPD, DSC and TGA.
Due to the high solubility of the DSP polymorph in some solvents (see Table 4), these solvents were chosen for the evaporation test. The solutions were prepared according to the solubility of the compound and were kept open at room temperature to let the solvents evaporate to form crystals. After evaporation was complete, the dried solids were collected and investigated by XRPD. Further tests were performed on DSC and TGA if new XRPD patterns were found.
10-30 mg of the original form of ASLAN003 was loaded into glass vials and placed in a thermomixer at either 60° C. or 50° C. After this, the selected solvents (see Table 4) were slowly added to the samples until the compound was completely dissolved. Next, the samples were transferred into the Crystal 16 crystallizer and the cooled to 0° C. at a rate of 0.5° C./min, before they were held at 0° C. for 24 hrs. If there was no solid precipitation at 0° C., the sample was transferred into a freezer at −20° C. […]
Two samples from Example 4: • 1. […] THF with water by antisolvent were further characterized after drying under vacuum conditions at 40° C. overnight and evaluated.

A short description of data set [2]: Approximate solubility by manual dilution combined with visual observation. Conditions: thermodynamic from solid. How it is done:
The approximate solubility was tested at room temperature by manual dilution combined with visual observation. The solubility of material in different single and mixed solvents was determined at the concentration once no particles of farudodstat could be visually observed in solvents.

The nature of data set [3]: Polymorph screening experiments (XRPD of returned solids). Conditions: conclusion of screening experiments. The protocol: A solvent solubility screen was carried out on the farudodstat DSP polymorph (also referred to as CS-276-22 in the following examples) to determine its solubility in various solvents, and to gain an initial assessment of the polymorphic landscape. To ˜20 mg samples of predominantly amorphous farudodstat, aliquots (2×50 μL and then 100 μL) of the chosen solvents were added until dissolution was observed, or 2 mL had been added. The samples were manually agitated and heated to ˜40° C. in a block attached to a water bath in between each aliquot Clear solutions were uncapped and allowed to evaporate at room temperature. Any solids obtained from slurries and from evaporation were analysed by X-ray powder diffraction (XRPD).
16×20 mg of the farudodstat DSP polymorph sample was weighed into 2 mL bead mill vials and was milled for 1.5 hrs for amorphization. Next, 5 μL of appropriate solvents (see Table 6) were added to each sample. The samples were then bead milled using the following procedure: • 1. 2 stainless steel beads were added to each vial. • 2. 4500 rpm • 3. 10×90 s cycles • 4. 10 s hold between each cycle • 5. Repeated 4× to give 1 hr milling time
16×20 mg of farudodstat sample was first weighed into 2 mL bead mill vials and was milled to prepare amorphous material. To all the […] bead milled samples, appropriate solvents (see Table 6) were added in 100 μL aliquots until a mobile slurry was obtained without any dissolution observed. Between additions, the samples were stirred at 40° C. Samples were then stirred, and temperature cycled between 5-40° C. (0.1° C./min heating/cooling rate, 1 hour hold at each temperature) for ˜72 hours.
After 48 hours, samples were checked. If necessary, additional solids added. Non-mobile solid in solution samples were agitated using a spatula until a mobile slurry was obtained. Slurries were isolated by centrifugation ([…] nylon filters) and the solids analysed by XRPD. Post XRPD analysis, the XRPD plate was dried at 40° C. under vacuum for 48 hours and the solids reanalysed by XRPD to give an indication of form stability.
The saturate isolated from the previous thermal cycling experiment was left to evaporate at room temperature. Any solids returned from evaporation were analysed by XRPD.
16×20 mg of farudodstat sample was weighed into 2 mL bead mill vials and then milled to prepare amorphous material. To the bead milled sample, appropriate solvent was added in 100 μL aliquots until a mobile slurry was obtained without any dissolution observed. Between additions, the samples were stirred at 50° C. and 100° C. depending upon the boiling point of the solvent to dissolve the API in the solvent system. Samples were checked and slurries were isolated by centrifugation ([…] Nylon filters) and the saturates were put in an HPLC vials. Next, the vials were uncapped and were left to evaporate at 50° C. using a water bath. Finally, after the complete evaporation of solvent, the remaining solid were analysed by XRPD to check for appearance of any new patterns.
20 mg×5 of farudodstat sample was weighed into 2 ml bead mill vials and milled to prepare amorphous material. To the bead milled sample, appropriate solvent was added in 100 μL aliquots until a mobile slurry was obtained without any dissolution observed. Between additions, the samples were stirred at 100° C. to dissolve the API in the solvent system. Samples were checked and slurries were isolated by centrifugation (0.22 μm Nylon filters) and the saturates were put in an HPLC vials. The vials were then uncapped and were left to evaporate at 100° C. using a sand bath. After the complete evaporation of solvent, the remaining solid were analysed by XRPD to check for appearance of any new patterns.
20 mg×16 farudodstat sample was weighed into 2 ml bead mill vials and milled to prepare amorphous material. The appropriate solvent was added in 100 μL aliquots until a mobile slurry was obtained without any dissolution observed. […]

The nature of data set [4]: Characterisation of new polymorphs: XRPD before and after drying/grinding. How it is done: 500 μL 1,1,1.3.3.3-Hexafluoro-2-Propanol was added to 20 mg of amorphous farudodstat DSP polymorph in a 1.5 mL of HPLC vial equipped with a magnetic stirring bar, resulting in formation of a mobile slurry. The slurry was isothermally stirred for 2 weeks at 40° C. An additional 20 mg of material was added to the slurry as it became a clear solution after one week. Solids were isolated by centrifugation using a […] Nylon filter, and were analysed without any further drying by XRPD, TGA and 1H NMR (proton nuclear magnetic resonance). Finally, the samples were dried at 40° C. for 4 hrs and then reanalysed by XRPD.
350 μL of N-Methylpyrrolidone (NMP) was added to 20 mg of amorphous farudodstat DSP polymorph in a 1.5 mL HPLC vial equipped with a magnetic stirring bar to prepare a mobile slurry. The resulting slurry was thermally cycled for 3 days between 5-40° C. (Ramp rate: 0.1° C./min with isothermal holds of 1 hour at 40° C. and 5° C.). The saturated solution was then evaporated at 100° C., before the solids were analysed by XRPD.

Regarding `COc1cccc(-c2cc(F)c(Nc3ncccc3C(=O)O)c(F)c2)c1` [farudodstat DSP polymorph, 2-(3,5-difluoro-3′methoxybiphenyl-4-ylamino)nicotinic acid], the “Weight loss on heating” value in data set [1] (after heating to 200° C.) was “minimum weight loss”. The “Form found in screening experiments” value in data set [1] (all experiments of Table 4 (anti-solvent, grinding, crystallization, drying, milling, heating/cooling, slurry, evaporation)) was “predominant form”. Besides, the Stability on recrystallisation result in data set [1] (recrystallized from a number of solvents) was “stable and reproducible”. Besides, the Polymorph stability result in data set [1] (samples from THF evaporation and THF-water antisolvent, dried under vacuum at 40° C. overnight) is listed as “stable”. Further, the solubility was below 10000 µg/mL in data set [2] (11 organic solvents/mixed solvents, organic solvent or mixture, read-out: relatively poor solubility); below 1580 µg/mL in data set [2] (organic solvent or mixture, Acetone:Dichloromethane (1:1), room temperature, read-out: Solubility); below 1900 µg/mL in data set [2] (organic solvent or mixture, Acetone:Dichloromethane (3:1), room temperature, read-out: Solubility); below 570 µg/mL in data set [2] (organic solvent or mixture, CHCl3, room temperature, read-out: Solubility); below 490 µg/mL in data set [2] (organic solvent or mixture, Cyclohexane, room temperature, read-out: Solubility); below 600 µg/mL in data set [2] (organic solvent or mixture, Dichloromethane, room temperature, read-out: Solubility). The solubility in data set [2] (organic solvent or mixture, Heptane, room temperature, read-out: Solubility) was below 810 µg/mL; in data set [2] (organic solvent or mixture, THF-Heptane (1:1), room temperature, read-out: Solubility) it was below 1510 µg/mL; in data set [2] (organic solvent or mixture, Toluene, room temperature, read-out: Solubility), below 530 µg/mL; in data set [2] (organic solvent or mixture, some solvents, room temperature, read-out: High solubility), above 100000 µg/mL; in data set [2] (Water, room temperature, read-out: Solubility), below 530 µg/mL. Besides, the “Overall stability of polymorph” value in data set [3] is listed as “highly stable; also recorded: high stability”.
With `COc1cccc(-c2cc(F)c(Nc3ncccc3C(=O)O)c(F)c2)c1` [NMP polymorph], the “Stability of polymorphic form” value in data set [4] was “unstable/metastable”. Also, the Form after drying entry in data set [4] (drying at 40° C. for 4 hours) was “conversion of Pattern 3 back to Pattern 1”. For the same molecule, in data set [4] (gentle grinding), the “XRPD after gentle grinding” value is “did not change the pattern observed”.
